# Test results as given in article doi:10.1101/2023.02.06.527370, “A remarkable transformation catalyzed by a domain-of-unknown-function 692 during the biosynthesis of a new RiPP natural product” (bioRxiv, 2023).
# Target: T1, ChrHI (ChrH with ChrI) (Chryseobacterium sp. JM1, UniProt A0A086ASD2)
# T1 construct: gene IW22_14845
# Assay: MALDI-TOF MS of in vitro reaction products after LysC digestion
# Assay type: biochemical
# Settings: precursor peptide ChrA as co-substrate, DTT, aerobic, iron-containing enzyme; methyl donor; also run with 13CD3-SAM (labelled compound)
# T1 sequence (A0A086ASD2 entry or part of it): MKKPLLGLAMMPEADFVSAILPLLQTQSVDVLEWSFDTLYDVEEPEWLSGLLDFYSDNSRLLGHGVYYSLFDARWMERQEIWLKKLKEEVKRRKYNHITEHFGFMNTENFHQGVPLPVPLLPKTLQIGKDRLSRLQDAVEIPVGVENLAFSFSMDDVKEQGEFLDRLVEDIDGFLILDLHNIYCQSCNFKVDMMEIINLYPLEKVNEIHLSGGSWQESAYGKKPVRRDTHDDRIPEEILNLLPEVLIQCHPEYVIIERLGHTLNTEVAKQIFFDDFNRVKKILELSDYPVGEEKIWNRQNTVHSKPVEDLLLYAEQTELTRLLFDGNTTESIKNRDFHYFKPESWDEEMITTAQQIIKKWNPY
smiles,measurement,value
"C[S+](CC[C@H](N)C(=O)O)C[C@H]1O[C@@H](n2cnc3c(N)ncnc32)[C@H](O)[C@@H]1O (stereo partly shown) [SAM, S-adenosylmethionine]",MALDI-TOF MS of in vitro reaction products after LysC digestion,SAM is the methyl donor in the posttranslational modification of ChrA by ChrHI
